# Values of other authors as cited in publication PMC11327090, “The Nectin family ligands, PVRL2 and PVR, in cancer immunology and immunotherapy” (Frontiers in Immunology, 2024).
# How the values were obtained:
# Myeloma cells = tested on: Myeloma cells; design: method as in PMID 19098271; conditions: treated myeloma cells
# breast cancer cell lines = tested on: breast cancer cell lines; design: method as in PMID 30039180; conditions: in vitro
# [1] = tested on: non-small cell lung cancer; design: method as in PMID 35576957; conditions: phase II trial
molecule,measurement,setting,value
CC(C)C[C@H](NC(=O)[C@H](Cc1ccccc1)NC(=O)c1cnccn1)B(O)O [bortezomib],PVRL2 and PVR expression,Myeloma cells,upregulate PVRL2 and PVR expression
COc1cccc2c1C(=O)c1c(O)c3c(c(O)c1C2=O)C[C@@](O)(C(=O)CO)C[C@@H]3O[C@H]1C[C@H](N)[C@H](O)[C@H](C)O1 [Adriamycin],PVR expression,breast cancer cell lines,increases PVR expression
same,PVRL2 and PVR expression,Myeloma cells,upregulate PVRL2 and PVR expression
N[C@@H](Cc1ccc(N(CCCl)CCCl)cc1)C(=O)O [melphalan],PVRL2 and PVR expression,Myeloma cells,upregulate PVRL2 and PVR expression
"placebo plus atezolizumab: anti-PD-L1 antibody atezolizumab with placebo, comparator arm of the phase II trial",objective response rate,[1],16.2%
same,Median progression-free survival,[1]; 95% CI in brackets,3.6 months
